How the values were obtained:
σ-1 receptors [1] = target: T1, σ-1 receptors (Homo sapiens, UniProt Q99720); test: affinity for σ-1 receptors; format: binding; conditions: read-out: affinity for σ-1 receptors (pKi) (converted)
σ-2 receptors = σ-2 receptors (Homo sapiens, UniProt Q5BJF2); test: affinity for σ-2 receptors; format: binding
[2] = test system: scopolamine and dizocilpine (MK-801) induced amnesia or amyloid peptide β25-35 (Aβ25-35); test: anti-amnesic action in mice; format: in vivo; conditions: per os (po)
Experimental: The above molecular profile is the basis for AE14 modulatory role over the G-protein coupled receptors (GPCRs) and its pharmacological properties: anti-amnesic action (antagonistic action against scopolamine and dizocilpine (MK-801) induced amnesia or amyloid peptide β25-35 (Aβ25-35), at low doses (from 0.03 mg/kg administered per os (po), in mice). This unique new profile of AE14: anti-apoptotic via agonistic sigma-1 regulation of the volume regulated chloride channels (VRCC), anti-oxidative stress via agonistic action on the sigma-1 receptors of the ER-mitochondrion.

ER stress = test: protocols of acute or chronic ER and cellular stress, in vitro and in vivo; design: species or system mice
PTZ-induced tonic crises = test: protection against pentylenetetrazole (PTZ) induced stress and tonic crises; conditions: in vitro or in vivo, on mice
σ-1 receptors [3] = target: T1, σ-1 receptors; test: agonistic/antagonistic action on σ-1 receptors
[4] = test system: cancer cells: colorectal, prostate, ovarian renal, pancreas, lung, gliomas, glioblastomas leukemia, lymphomas, melanomas, sarcomas and hepatoma
[5] = test system: primary (drug resistant) melanoma; test: in vivo anticancer activity in mice xenografts
Description: All molecules present strong chemical affinities (sub-nanomolar to micromolar) for α-1 receptors with antagonistic action (except AdAE and AdPhAE which are weak agonists) and with nanomolar to micromolar affinities for α-2 receptors and agonistic action. Therefore, all molecules above and their derivatives are pro-apoptotic and only at very low concentrations or doses are anti-apoptotic. All molecules above are toxic to the cancer cells: colorectal, prostate, ovarian renal, pancreas, lung, gliomas, glioblastomas leukemia, lymphomas, melanomas, sarcomas and hepatoma, with antiproliferative and cytotoxic concentrations usually lower than 10 microMolar (μM), for more than 50 of the above derivatives. […] The pharmacological profile of the above molecules is totally prototypical and original giving the possibility of a therapeutic synergy with the clinically used anticancer drugs with simultaneous antagonism and protection against the most grave secondary effects i.e., neuropathic pain and disability induced by the clinically used anticancer drugs.

[6] = test system: primary (drug resistant) melanoma; test: in vitro cytotoxicity, primary melanoma; format: cell-based
leukaemia = test: in vitro cytotoxicity, leukaemia; format: cell-based
lung = test: in vitro cytotoxicity, lung; format: cell-based
breast = test: in vitro cytotoxicity, breast; format: cell-based
colon = test: in vitro cytotoxicity, colon; format: cell-based
glioblastomas = test: in vitro cytotoxicity, glioblastomas; format: cell-based

T1 sequence (Q99720 whole entry): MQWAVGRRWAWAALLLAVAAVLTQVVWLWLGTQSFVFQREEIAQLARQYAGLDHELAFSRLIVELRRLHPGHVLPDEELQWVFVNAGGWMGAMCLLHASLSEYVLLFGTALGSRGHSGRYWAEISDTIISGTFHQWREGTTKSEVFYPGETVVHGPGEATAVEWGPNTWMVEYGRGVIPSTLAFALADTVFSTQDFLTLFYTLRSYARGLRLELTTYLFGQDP
Chain of σ-2 receptors (Q5BJF2 whole entry): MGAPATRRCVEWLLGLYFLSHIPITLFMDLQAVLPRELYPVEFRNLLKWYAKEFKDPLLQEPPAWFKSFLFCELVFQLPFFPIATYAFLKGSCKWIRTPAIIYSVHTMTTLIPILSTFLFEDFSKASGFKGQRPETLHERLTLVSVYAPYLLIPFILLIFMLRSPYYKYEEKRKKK

CN(C)CC1COC(c2ccccc2)(c2ccccc2)C1 (centres unmarked) [AE14, Tetrahydro-N,N,-Dimethyl-5,5-Diphenyl-3-Furanomethanamine]
Ki (σ-1 receptors [1]): 0.0251 µM | Ki (σ-2 receptors): > 10 µM | affinity for σ-2 receptors, times lower than for σ-1 (σ-2 receptors; σ-2 versus σ-1): more than 100 times | anti-amnesic action, active doses [2]: ≥ 0.03 mg/kg | effect on ER stress (ER stress; acute or chronic cellular stress, oligopeptides or streptozocin, in vitro and in vivo on mice): antagonized the ER stress

CNCC1CCOC1(c1ccccc1)c1ccccc1 (centres unmarked) [AE37 Met, Tetrahydro-N-Methyl-2,2-Diphenyl-3-Furanomethanamine]
activity relative to AE37 (ER stress; for the properties mentioned for AE37): slightly more active than AE37 | protection against ER-mitochondrion anoxia and oxidative stress caused by PTZ (PTZ-induced tonic crises): exceptional protection

CN(C)CC1CCOC1(c1ccccc1)c1ccccc1 (centres unmarked) [AE37, Tetrahydro-N,N-Dtiviethyl-2,2-Dinienyl-3-Furanomethanamine]
Ki (σ-1 receptors [1]): 0.501 µM | affinity for σ-2 receptors (σ-2 receptors): no affinity | action on σ-1 receptors (σ-1 receptors [3]): selective σ-1 agonist | anti-apoptotic properties (ER stress; chronic ER and cellular stress, in vitro and in vivo on mice): high anti-apoptotic properties

COc1ccc(CCN2CCC(Nc3nc4ccccc4n3Cc3ccc(F)cc3)CC2)cc1 [AST, Astemizole]
cytotoxicity, in vitro [4]: 3.0 to 5.0 µM

CN(C)CC1COC2(C1)C1CC3CC(C1)CC2C3 (centres unmarked) [AdAE, (DIHYDRO-4-(DIMETHYLAMINOMETHYL)SPIRO {FURANE-2(3H),2′-TRICYCLO[3.3.1.13,7]DECANE}]
action on σ-1 receptors (σ-1 receptors [3]): weak agonists

CN(C)CC1COC(c2ccccc2)(C23CC4CC(CC(C4)C2)C3)C1 (centres unmarked) [AdPhAE, 5-(TRICYCLO[3.3.1.13,7]DEC-1-YL)-TETRAHYDRO-N,N-DIMETHYL-5-PHENYL-3-FURANEMETHANAMINE]
action on σ-1 receptors (σ-1 receptors [3]): weak agonists

CN(C)/N=N/c1[nH]cnc1C(N)=O [Dacarbazine]
in vivo anticancer activity [5]: inactive

CN(C)c1ccc2nc3ccc(=[N+](C)C)cc-3sc2c1 [MB, Methylene blue]
cytotoxicity, in vitro [6]: lower than 1.0 μM | cytotoxicity, in vitro (leukaemia): lower than 1.0 μM | cytotoxicity, in vitro (lung): lower than 1.0 μM | cytotoxicity, in vitro (breast): ~2.0 µM | cytotoxicity, in vitro (colon): ~2.0 µM | cytotoxicity, in vitro (glioblastomas): ~2.0 µM | in vivo anticancer activity [5]: confirmed in vivo

CCN(CC)CCCC(C)Nc1c2ccc(Cl)cc2nc2ccc(OC)cc12 (centres unmarked) [QNC, Quinacrine]
in vivo anticancer activity [5]: outstanding in vivo activity
